From patent US6201116A, “Halide indicators” (The Regents of the University of California, priority 1999, dated 2001)

Experiments:
[1] = Fluorescence spectra / optical properties; format: physicochemical; parameters: key to Brightness: ++++: very bright; +++: bright; ++: moderate brightness; +: weak
Experimental: (§1) Computations. In vitro fluorescence quenching studies were carried out at peak excitation and emission wavelengths. Microliter aliquots of the sodium salt of the quenching anion (1 M) were added to indicator solution in 5 mM sodium phosphate (pH 7.2, unless indicated otherwise). Fluorescence intensities in the absence (Fo) and presence (F) of quencher anion ([Q]) were measured to give the Stem-Volmer constant (Kq) as defined by:
Fluorescence spectra reveal that LZQ and LMQ have broad excitation and emission peaks with maxima at 424 and 528 nm, respectively. The molar extinction coefficient of LZQ was 11,100 M^-1 cm^-1 at 424 nm and the quantum yield in the absence of I^- was 0.53. Stem-Volmer plots for quenching of LZQ and LMQ by I^- and Cl^-, with data for SPQ shown for comparison, were generated. In water (or saline), LZQ fluorescence was quenched by I^- with a Stem-Volmer constant of 60 M^-1. LZQ fluorescence was not quenched (Stem-Volmer constant <1 M^-1) by Cl^-, NO3^-, phosphate, acetate, Na^+ and K^+. LZQ fluorescence and I^- sensitivity were not affected by pH changes in the range 4.5-8.

[2] = In vitro fluorescence quenching by I^- (Stern-Volmer); format: physicochemical
Experimental: as §1, with “by: Fo /F=1+Kq [Q].” for “by:”

[3] = test system: cells; test: Indicator leakage / cytoplasmic retention; format: cell-based
Experimental: (§2) Fluorescence microscopy. Fluorescence microscopy measurements were performed as described previously (Chao et al., 1989). Briefly, coverglasses were mounted in a 0.5 ml perfusion chamber in which the cell-free glass surface made contact with an oil immersion objective (Nikon ×40 magnification, numerical aperture[NA] 1.3). Cell fluorescence was excited at 365±10 nm (SPQ) or 420 nm±10 nm (LZQ and LMQ). Emitted fluorescence was detected by a photomultiplier in a Nikon inverted epifluorescence microscope using a 410 nm dichroic mirror and 420 nm barrier filter (SPQ) or a 455 nm dichroic mirror and 500 nm barrier filter (LZQ). For cells colabeled with SPQ and LZQ, SPQ fluorescence was excited at 365±10 nm and detected using a 410 nm dichroic mirror and 455±30 nm interference filter. Confocal fluorescence micrographs were obtained using a Nipkow wheel confocal microscope and cooled CCD camera detector using a ×60 oil immersion objective (Nikon, NA 1.4). LZQ-labeled cells were viewed using a fluorescein filter set (excitation 480±15 nm, emission 520±20 nm).
(§3) A time course of LZQ fluorescence during perfusion with physiological saline at 23° C. was generated. A small group of 20-30 cells was illuminated continuously and fluorescence was detected by a photomultiplier using an ×40, 1.3 NA objective. Cellular fluorescence decreased slowly at a rate of 2.5% per hour. To determine the relative contributions of indicator leakage vs. photobleaching to the slow decline in fluorescence, the perfused cells were illuminated intermittently. […] Background fluorescence (in non-labeled cells) was generally <5% of the fluorescence of LZQ-labeled cells.

[4] = test system: cells; test: Photobleaching in cells; format: cell-based
Experimental: as §2, §3

[5] = test system: 3T3 fibroblasts expressing CFTR; test: Intracellular sensitivity to I^-; format: cell-based, mouse
Experimental: as §2, with “LZQ-labeled cells were viewed using a fluorescein filter set (excitation 480±15 nm, emission 520±20 nm).” left out
as §3, with “hour.” for “hour. To determine the relative contributions of indicator leakage vs. photobleaching to the slow decline in fluorescence, the perfused cells were illuminated intermittently.”, “cells. […]” for “cells.”

[6] = test system: cells; test: Response of intracellular fluorescence to osmotically-induced changes in cell volume; format: cell-based
Experimental: as §2
The similar LZQ lifetime in cells and water predicts that LZQ fluorescence should be relatively insensitive to cell volume in the absence of I^-. […] When cells were exposed to hypoosmotic medium (225 mOsm), SPQ fluorescence increased by 15±2%, whereas LZQ fluorescence increased by only 4±1%.

[7] = test system: CFTR; test: Colabeling: effect of LZQ on SPQ fluorescence / CFTR-mediated Cl^- transport; format: cell-based; conditions: Cl^-/NO3^- exchange; SPQ alone vs. colabeled with LZQ
Experimental: as §2, with “LZQ-labeled cells were viewed using a fluorescein filter set (excitation 480±15 nm, emission 520±20 nm).” left out
Transport measurements. […] For fluorescence microscopy, glass coverslips were then mounted in a perfusion chamber (flow ~2 ml/min) in which solutions were exchanged using a 4-way valve. For microplate reader measurements, cells in 96-well plates were bathed in […] of the `1st buffer` (see Table 3) and […] of the Cl^- -containing, I^- -free solution was injected into the well to drive Cl^- /I^- exchange (protocol 1). […]

emission maximum [1]: 528 nm | excitation maximum [1]: 424 nm | Brightness ([1]; Table 4): +++ | λem (emission wavelength) ([1]; Table 4): 528 nm | λex (excitation wavelength) ([1]; Table 4): 424 nm | molar extinction coefficient ([1]; at 424 nm): 11,100 M^-1 cm^-1 | quantum yield ([1]; in the absence of I^-): 0.53 | effect of pH on fluorescence ([1]; pH 4.5-8): not affected | effect of pH on I^- sensitivity ([2]; pH 4.5-8): not affected | Cellular properties: photobleaching ([4]; Table 4): slow | photobleaching, intermittent vs. continuous illumination ([4]; low light level conditions): absence of photobleaching
Compound: [O-]c1nc2c(N[C@@H]3O[C@H](CO)[C@@H](O)[C@H]3O)ncnc2[n+]2ccccc12 [I, 4-(β-D-ribofuranosylamino)-pyrido [2,1-h] pteridin-11-ium-5-olate]
Ksv (I^-), Stern Volmer quenching constant ([2]; Table 4): 60 M⁻¹ | Stern-Volmer constant, quenching by I^- ([2]; in water (or saline)): 60 M⁻¹ | cytoplasmic retention vs. LMQ [3]: better cytoplasmic retention properties than LMQ | leakage out of cells ([3]; microplate section): low rate | rate of decrease of cellular fluorescence ([3]; perfusion with physiological saline, 23° C.): 2.5 % per hour | intracellular Stern-Volmer constant, quenching by I^- ([5]; high [K^+] and ionophores): 26 M⁻¹ | cellular fluorescence response to I^- ([5]; repeated addition and removal of 50 mM I^-): large, reversible changes in fluorescence | fluorescence increase upon exposure to hypoosmotic medium ([6]; 225 mOsm): 4±1% | fluorescence change upon exposure to hyperosmotic medium ([6]; 600 mOsm, absence of I^-): 5±1% | effect on time course of SPQ fluorescence / CFTR-mediated Cl^- transport [7]: did not affect the time course of SPQ fluorescence
